Data as given in US10350219B2, “Antimicrobial compositions and methods of making the same” (priority 2013, dated 2019).

Experiments:
[1] = Table Lamp Light Exposure Test (TLE), discoloration; format: physicochemical; conditions: gel with glycerol 10%, clay 4%, silver 0.054% weight; for Gel color after continuous light exposure: Fresh: 60 W table lamp at 1 to 1.5 feet; for Gel color after continuous light exposure: After 24 h: 60 W table lamp
Description: (a) Table Lamp Light Exposure Test (TLE) • The samples of the said compositions contained in either glass vials or 15 ml PP tubes (BD Falcon) were placed under a table lamp (turned on) at a distance of 12 to 15 inches for continuous exposure. The incandescent lamp wattage was 60 W. After the desired duration of exposure, the test samples were examined for visible discoloration by holding it against a white plain paper. Non-hydrogel samples were examined against the control samples protected from light.

rats = conditions: cited from earlier work
[2] = Steam sterilization (thermal stability, discoloration); format: physicochemical; conditions: hydrogel
Description: (b) Steam Sterilization • One steam sterilization cycle was imposed on gel prototypes to evaluate their ability to withstand elevated temperatures. The gel samples contained in 15 ml or 50 ml PP tubes or other non-hydrogel prototypes (in sealed foil pouches) were examined post sterilization for any adverse temperature effect on its color, viscosity, texture, phase separation etc.
A majority of the hydrogel prototypes of the present disclosure were tested for their ability to withstand elevated temperatures simply by subjecting them to one steam sterilization cycle. The test samples experienced temperature rises from 20 C to 122 C over 15 min, followed by constant temperature of 122 C for 15 min and finally a cool down from 122 C to ˜40 C over 3 h. Thus, the test samples experienced nearly 3.5 h of hostile temperature condition.
“Steam sterilizable” or “heat stable” or “inert to heat” is defined as having no visible sign of discoloration (color change following exposure that will add shade of black, brown, yellow or purple) after one steam sterilization cycle (122 C for 15 min) that includes periods of warming up and final cool down to room temperature (<40 C).

[3] = theor. silver content 110 ppm, ratio of cyanurate/silver ions 5
[4] = theor. silver content 220 ppm, ratio of cyanurate/silver ions 2.5

Silver Benzene sulfonate
Gel color after continuous light exposure: Fresh [1]: Brown after 0.5 h | Gel color after continuous light exposure: After 24 h [1]: Brown black

C=C(CC(=O)[O-])C(=O)[O-].[Ag+].[Ag+] [Silver Itaconate]
Gel color after continuous light exposure: After 24 h [1]: Brown black

Silver Sorbate
Gel color after continuous light exposure: After 24 h [1]: Brown black

O=C(O)c1ccccc1 [benzoic acid]
LD50 (rats): 2530 mg/kg of body weight

O=C([O-])c1ccccc1.[Ag+] [Silver Benzoate]
Gel color after continuous light exposure: After 24 h [1]: Brown black

O=C([O-])/C=C\C(=O)O.[Ag+] [Silver Mono-maleate]
Gel color after continuous light exposure: Fresh [1]: Smooth hazy gel | Gel color after continuous light exposure: After 24 h [1]: Brown yellow

O=C([O-])C(O)C(O)C(=O)O.[Ag+] (centres unmarked) [Silver Mono-tartrate]
Gel color after continuous light exposure: Fresh [1]: Hazy gel | Gel color after continuous light exposure: After 24 h [1]: Brown black

O=C([O-])CO.[Ag+] [Silver Glycolate]
Gel color after continuous light exposure: After 24 h [1]: Brown grey

CCC(=O)[O-].[Ag+] [Silver Propionate]
Gel color after continuous light exposure: After 24 h [1]: Brown black

Silver Gluconate
Gel color after continuous light exposure: After 24 h [1]: Brown black

O=C1[N-]S(=O)(=O)c2ccccc21.[Ag+] [Silver Saccharinate]
Gel color after continuous light exposure: Fresh [1]: Yellow brown

O=c1[n-]c(=O)[nH]c(=O)[nH]1.O=c1[n-]c(=O)[nH]c(=O)[nH]1.[Ag+].[Na+] [Na[Ag(C3N3O3H2)2], Sodium silver cyanurate ligand complex Na[Ag(C3N3H2O3)2] or its hydrate]
Color after steam sterilization [2, 3]: No discoloration | Color before steam sterilization [2, 3]: Hazy to clear | Color after steam sterilization [2, 4]: No discoloration | Color before steam sterilization [2, 4]: Hazy to clear

O=c1[nH]c(=O)[nH]c(=O)[nH]1 [cyanuric acid]
LD50 (rats): 7700 mg/kg of body weight | lethal dose LD50 (rats; internet source): 7.70 g/kg of body weight
